Test results published in US10344025B2, “GLS1 inhibitors for treating disease” (Board of Regents, The University of Texas System, priority 2014, dated 2019).

What was measured:
[1] = tested on: A549 cells; assay: Proliferation Assay (A549 viability, Cell Titer Fluor, 72 hours); type: cell-based; details: Homo sapiens, A549, 72 h
How it was run: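 Cell Titer Fluor fluorescence after 72 h compound treatment (0.5% DMSO, 37 °C, 5% CO2) of A549 cells plated 24 h earlier at 1000/well. Four-parameter logistic fitting gave IC50.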

[2] = target: purified recombinant human GAC (GLS1) (Homo sapiens (Human), UniProt O94925); assay: GLS1 Enzymatic Activity Assay (dual-coupled enzymatic assay, resorufin/Amplex UltraRed readout); type: biochemical;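 further: glutamate from GAC coupled via glutamate oxidase and peroxidase to resorufin, read as fluorescence (ex 530, em 590 nm) kinetically or at 20 min, four-parameter logistic IC50 fit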
Sequence of purified recombinant human GAC (GLS1) (O94925 other isoform, or with tags, fused parts or gaps): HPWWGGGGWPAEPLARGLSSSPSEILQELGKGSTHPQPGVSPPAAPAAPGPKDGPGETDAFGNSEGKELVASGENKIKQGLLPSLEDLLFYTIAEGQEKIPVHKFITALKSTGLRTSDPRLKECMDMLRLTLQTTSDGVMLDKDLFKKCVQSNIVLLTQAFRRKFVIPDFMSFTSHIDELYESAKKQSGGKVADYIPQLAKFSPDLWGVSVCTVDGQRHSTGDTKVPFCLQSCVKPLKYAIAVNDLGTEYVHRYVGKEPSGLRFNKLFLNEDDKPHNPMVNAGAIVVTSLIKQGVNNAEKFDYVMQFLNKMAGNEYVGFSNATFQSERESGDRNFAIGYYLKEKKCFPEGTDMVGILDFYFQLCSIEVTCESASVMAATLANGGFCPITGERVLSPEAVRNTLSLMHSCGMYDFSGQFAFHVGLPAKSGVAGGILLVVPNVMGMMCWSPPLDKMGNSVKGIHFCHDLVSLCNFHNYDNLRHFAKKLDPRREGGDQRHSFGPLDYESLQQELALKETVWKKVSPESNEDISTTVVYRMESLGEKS

Row | EC50 [1] | IC50 [2] | Structure (SMILES)
1 | 500 to 5000 nM | 500 to 5000 nM | CNC(=O)c1cn(CC(F)CCc2nnc(C(=O)NCc3ccccc3)s2)nn1 (centres unmarked) [Example 563, N-benzyl-5-{3-fluoro-4-[4-(methylcarbamoyl)-1H-1,2,3-triazol-1-yl]butyl}-1,3,4-thiadiazole-2-carboxamide]
2 | 500 to 5000 nM | < 100 nM | CNC(=O)c1cn(CC(F)CCc2nnc(NC(=O)Cc3ncc(Cl)cc3F)s2)nn1 (centres unmarked) [Example 564, 1-(4-{5-[2-(5-chloro-3-fluoropyridin-2-yl)acetamido]-1,3,4-thiadiazol-2-yl}-2-fluorobutyl)-N-methyl-1H-1,2,3-triazole-4-carboxamide]
3 | 100 to 500 nM | < 100 nM | CNC(=O)c1cn(CCCCc2ccc(NC(=O)Cc3cccc(N4CCCC4)c3)nn2)nn1 [Example 565, N-methyl-1-(4-(6-(2-(3-(pyrrolidin-1-yl)phenyl)acetamido)pyridazin-3-yl)butyl)-1H-1,2,3-triazole-4-carboxamide]
4 | 100 to 500 nM | < 100 nM | CC(=O)Nc1nnc(CCC(F)Cn2cc(C(=O)NCc3cccc(OC(F)(F)F)c3)nn2)s1 (centres unmarked) [Example 566, 1-(4-(5-acetamido-1,3,4-thiadiazo1-2-yl)-2-fluorobutyl)-N-(3-(trifluoromethoxy)benzyl)-1H-1,2,3-triazole-4-carboxamide]
5 | 100 to 500 nM | < 100 nM | CC(=O)Nc1nnc(CCC(F)Cn2cc(C(=O)NCc3cc(C(F)(F)F)ccn3)nn2)s1 (centres unmarked) [Example 567, 1-(4-(5-acetamido-1,3,4-thiadiazol-2-yl)-2-fluorobutyl)-N-((4-(trifluoromethyl)pyridin-2-yl)methyl)-1H-1,2,3-triazole-4-carboxamide]
6 | 100 to 500 nM | < 100 nM | O=C(NCc1cccc(OC(F)(F)F)c1)c1cn(CC(F)CCc2nnc(NC(=O)C3CC3)s2)nn1 (centres unmarked) [Example 568, 1-(4-(5-(cyclopropanecarboxamido)-1,3,4-thiadiazol-2-yl)-2-fluorobutyl)-N-(3-(trifluoromethoxy)benzyl)-1H-1,2,3-triazole-4-carboxamide]
7 | 500 to 5000 nM | 100 to 500 nM | CNC(=O)c1cn(CC(F)CCc2nnc(C(=O)NCc3ccccn3)s2)nn1 (centres unmarked) [Example 570, 5-(3-fluoro-4-(4-(methylcarbamoyl)-1H-1,2,3-triazol-1-yl)butyl)-N-(pyridin-2-ylmethyl)-1,3,4-thiadiazole-2-carboxamide]
8 | < 100 nM | < 100 nM | O=C(Cc1ccccn1)Nc1nnc(CCC(F)Cn2cc(C(=O)NCc3cncc(C(F)(F)F)c3)nn2)s1 (centres unmarked) [Example 571, 1-(2-fluoro-4-(5-(2-(pyridin-2-yl)acetamido)-1,3,4-thiadiazol-2-yl)butyl)-N-((5-(trifluoromethyl)pyridin-3-yl)methyl)-1H-1,2,3-triazole-4-carboxamide]
9 | 100 to 500 nM | < 100 nM | CNC(=O)c1nnc(CCCCc2ccc(NC(=O)Cc3cccc(OC(F)(F)F)c3)nn2)s1 [Example 572, N-methyl-5-(4-(6-(2-(3-(trifluoromethoxy)phenyl)acetamido)pyridazin-3-yl)butyl)-1,3,4-thiadiazole-2-carboxamide]
10 | < 100 nM | < 100 nM | O=C(Cc1nccs1)Nc1nnc(CCC(F)Cn2cc(C(=O)NCc3cc(OC(F)(F)F)ccc3F)nn2)s1 (centres unmarked) [Example 573, 1-(2-fluoro-4-(5-(2-(thiazol-2-yl)acetamido)-1,3,4-thiadiazol-2-yl)butyl)-N-(2-fluoro-5-(trifluoromethoxy)benzyl)-1H-1,2,3-triazole-4-carboxamide]
11 | < 100 nM | < 100 nM | O=C(NCc1cc(OC(F)(F)F)ccc1F)c1cn(CC(F)CCc2nnc(NC(=O)C3CCCCO3)s2)nn1 (centres unmarked) [Example 574, 1-(2-fluoro-4-(5-(tetrahydro-2H-pyran-2-carboxamido)-1,3,4-thiadiazol-2-yl)butyl)-N-(2-fluoro-5-(trifluoromethoxy)benzyl)-1H-1,2,3-triazole-4-carboxamide]
12 | 100 to 500 nM | < 100 nM | O=C(Cc1ccn[nH]1)Nc1nnc(CCC(F)Cn2cc(C(=O)NCc3cc(OC(F)(F)F)ccc3F)nn2)s1 (centres unmarked) [Example 575, 1-(4-(5-(2-(1H-pyrazol-5-yl)acetamido)-1,3,4-thiadiazol-2-yl)-2-fluorobutyl)-N-(2-fluoro-5-(trifluoromethoxy)benzyl)-1H-1,2,3-triazole-4-carboxamide]
13 | < 100 nM | < 100 nM | Cn1cnc(CC(=O)Nc2nnc(CCC(F)Cn3cc(C(=O)NCc4cc(OC(F)(F)F)ccc4F)nn3)s2)c1 (centres unmarked) [Example 576, 1-(2-fluoro-4-(5-(2-(1-methyl-1H-imidazol-4-yl)acetamido)-1,3,4-thiadiazol-2-yl)butyl)-N-(2-fluoro-5-(trifluoromethoxy)benzyl)-1H-1,2,3-triazole-4-carboxamide]
14 | 500 to 5000 nM | < 100 nM | O=C(Nc1nnc(CCC(F)Cn2cc(C(=O)NCc3cc(OC(F)(F)F)ccc3F)nn2)s1)c1cccnc1 (centres unmarked) [Example 577, N-(5-(3-fluoro-4-(4-((2-fluoro-5-(trifluoromethoxy)benzyl)carbamoyl)-1H-1,2,3-triazol-1-yl)butyl)-1,3,4-thiadiazol-2-yl)nicotinamide]
15 | 500 to 5000 nM | < 100 nM | CNC(=O)c1cn(CC(F)CCc2nnc(NC(=O)Cc3cccnc3)s2)nn1 (centres unmarked) [Example 578, 1-(2-fluoro-4-(5-(2-(pyridin-3-yl)acetamido)-1,3,4-thiadiazol-2-yl)butyl)-N-methyl-1H-1,2,3-triazole-4-carboxamide]
16 | 500 to 5000 nM | 100 to 500 nM | CNC(=O)c1cn(CCCCc2ccc(NC(=O)Cc3cnccn3)nn2)nn1 [Example 579, N-methyl-1-(4-(6-(2-(pyrazin-2-yl)acetamido)pyridazin-3-yl)butyl)-1H-1,2,3-triazole-4-carboxamide]
17 | < 100 nM | < 100 nM | O=C(Cc1cc(C2CC2)ccn1)Nc1nnc(CCC(F)Cn2cc(C(=O)NCc3cncc(C(F)(F)F)c3)nn2)s1 (centres unmarked) [Example 580, 1-(4-(5-(2-(4-cyclopropylpyridin-2-yl)acetamido)-1,3,4-thiadiazol-2-yl)-2-fluorobutyl)-N-((5-(trifluoromethyl)pyridin-3-yl)methyl)-1H-1,2,3-triazole-4-carboxamide]
18 | 100 to 500 nM | < 100 nM | O=C(Cc1cc(OC(F)(F)F)ccc1F)Nc1ccc(CCCCn2cc(C(=O)NC3COC3)nn2)nn1 [Example 581, 1-(4-(6-(2-(2-fluoro-5-(trifluoromethoxy)phenyl)acetamido)pyridazin-3-yl)butyl)-N-(oxetan-3-yl)-1H-1,2,3-triazole-4-carboxamide]
19 | 100 to 500 nM | < 100 nM | O=C(Cc1cc(OC(F)(F)F)ccc1F)Nc1ccc(CCCCn2cc(C(=O)NCC3CCO3)nn2)nn1 (centres unmarked) [Example 582, 1-(4-(6-(2-(2-fluoro-5-(trifluoromethoxy)phenyl)acetamido)pyridazin-3-yl)butyl)-N-(oxetan-2-ylmethyl)-1H-1,2,3-triazole-4-carboxamide]
20 | < 100 nM | < 100 nM | O=C(Cc1cc(OC(F)(F)F)ccc1F)Nc1ccc(CCCCn2cc(C(=O)NC3CC3)nn2)nn1 [Example 583, N-cyclopropyl-1-(4-(6-(2-(2-fluoro-5-(trifluoromethoxy)phenyl)acetamido)pyridazin-3-yl)butyl)-1H-1,2,3-triazole-4-carboxamide]
21 | 100 to 500 nM | < 100 nM | COCCNC(=O)c1cn(CCCCc2ccc(NC(=O)Cc3cc(OC(F)(F)F)ccc3F)nn2)nn1 [Example 584, 1-(4-(6-(2-(2-fluoro-5-(trifluoromethoxy)phenyl)acetamido)pyridazin-3-yl)butyl)-N-(2-methoxyethyl)-1H-1,2,3-triazole-4-carboxamide]
22 | < 100 nM | < 100 nM | O=C(Cc1cc(OC(F)(F)F)ccc1F)Nc1ccc(CCCCn2cc(C(=O)NCc3ccccn3)nn2)nn1 [Example 585, 1-(4-(6-(2-(2-fluoro-5-(trifluoromethoxy)phenyl)acetamido)pyridazin-3-yl)butyl)-N-(pyridin-2-ylmethyl)-1H-1,2,3-triazole-4-carboxamide]
23 | < 100 nM | < 100 nM | O=C(Cc1cc(OC(F)(F)F)ccc1F)Nc1ccc(CCCCn2cc(C(=O)NCc3cccnc3)nn2)nn1 [Example 586, 1-(4-(6-(2-(2-fluoro-5-(trifluoromethoxy)phenyl)acetamido)pyridazin-3-yl)butyl)-N-(pyridin-3-ylmethyl)-1H-1,2,3-triazole-4-carboxamide]
24 | < 100 nM | < 100 nM | O=C(Cc1cc(OC(F)(F)F)ccc1F)Nc1ccc(CCCCn2cc(C(=O)NCc3ccncc3)nn2)nn1 [Example 587, 1-(4-(6-(2-(2-fluoro-5-(trifluoromethoxy)phenyl)acetamido)pyridazin-3-yl)butyl)-N-(pyridin-4-ylmethyl)-1H-1,2,3-triazole-4-carboxamide]
25 | < 100 nM | < 100 nM | O=C(Cc1ccccn1)Nc1ccc(CCCCn2cc(C(=O)NCc3cc(OC(F)(F)F)ccc3F)nn2)nn1 [Example 588, N-(2-fluoro-5-(trifluoromethoxy)benzyl)-1-(4-(6-(2-(pyridin-2-yl)acetamido)pyridazin-3-yl)butyl)-1H-1,2,3-triazole-4-carboxamide]
26 | < 100 nM | < 100 nM | O=C(Cc1cccnc1)Nc1ccc(CCCCn2cc(C(=O)NCc3cc(OC(F)(F)F)ccc3F)nn2)nn1 [Example 589, N-(2-fluoro-5-(trifluoromethoxy)benzyl)-1-(4-(6-(2-(pyridin-3-yl)acetamido)pyridazin-3-yl)butyl)-1H-1,2,3-triazole-4-carboxamide]
27 | < 100 nM | < 100 nM | O=C(Cc1ccncc1)Nc1ccc(CCCCn2cc(C(=O)NCc3cc(OC(F)(F)F)ccc3F)nn2)nn1 [Example 590, N-(2-fluoro-5-(trifluoromethoxy)benzyl)-1-(4-(6-(2-(pyridin-4-yl)acetamido)pyridazin-3-yl)butyl)-1H-1,2,3-triazole-4-carboxamide]
28 | 100 to 500 nM | < 100 nM | O=C(NCc1cc(OC(F)(F)F)ccc1F)c1cn(CCCCc2ccc(NC(=O)C3CC3)nn2)nn1 [Example 591]
